This is an account of results in patent publication US11773129B2, “Methods of preventing or treating atherosclerosis with inhibitors of specific isoenzymes of human neuraminidase” (THE GOVERNORS OF THE UNIVERSITY OF ALBERTA, priority 2017, dated 2023).

Read-outs that look alike come from different tables or passages of the source.

A word on the IC50: it is the concentration that inhibits the measured activity by half.

Assay type in all cases: biochemical
One test addresses T1, NEU1 (Homo sapiens, UniProt Q99519).
T1 construct: made in house; host or cells: HEK293 (lentiviral transduction), crude lysate
The experiment in a line: IC50 inhibition assay using 4MU-NANA as the substrate, NEU1. As to the method:
Two weeks after transduction cells were harvested and a crude lysate showing ˜200 nmol/h mg of sialidase activity used in experiments.
Assays were performed with duplicates for each point and IC50 was obtained by plotting the data with Graphpad™ Prism 5.0.

The next test addresses T2, NEU3 (Homo sapiens, UniProt Q9UQ49).
T2 sequence (Q9UQ49 1-428): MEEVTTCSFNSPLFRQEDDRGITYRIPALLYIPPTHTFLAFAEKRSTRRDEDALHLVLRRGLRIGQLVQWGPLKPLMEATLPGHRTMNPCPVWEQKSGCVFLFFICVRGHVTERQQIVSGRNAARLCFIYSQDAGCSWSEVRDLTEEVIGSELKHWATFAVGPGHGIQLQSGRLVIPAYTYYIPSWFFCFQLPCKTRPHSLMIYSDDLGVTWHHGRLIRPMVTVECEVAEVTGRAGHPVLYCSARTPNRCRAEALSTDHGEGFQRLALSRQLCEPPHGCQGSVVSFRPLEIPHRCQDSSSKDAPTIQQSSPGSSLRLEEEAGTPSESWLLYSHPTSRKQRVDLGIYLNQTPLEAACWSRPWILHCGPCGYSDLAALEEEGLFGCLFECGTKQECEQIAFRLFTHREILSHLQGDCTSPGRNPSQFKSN
The experiment in a line: IC50 inhibition assay using 4MU-NANA as the substrate, NEU3. The settings on record: 4MU-NANA as the substrate; read-out: IC50 NEU3. Details: MBP (N); made in house; host or cells: E. coli.

The next test addresses T3, NEU4 (Homo sapiens, UniProt Q8WWR8).
T3 sequence (Q8WWR8 1-484): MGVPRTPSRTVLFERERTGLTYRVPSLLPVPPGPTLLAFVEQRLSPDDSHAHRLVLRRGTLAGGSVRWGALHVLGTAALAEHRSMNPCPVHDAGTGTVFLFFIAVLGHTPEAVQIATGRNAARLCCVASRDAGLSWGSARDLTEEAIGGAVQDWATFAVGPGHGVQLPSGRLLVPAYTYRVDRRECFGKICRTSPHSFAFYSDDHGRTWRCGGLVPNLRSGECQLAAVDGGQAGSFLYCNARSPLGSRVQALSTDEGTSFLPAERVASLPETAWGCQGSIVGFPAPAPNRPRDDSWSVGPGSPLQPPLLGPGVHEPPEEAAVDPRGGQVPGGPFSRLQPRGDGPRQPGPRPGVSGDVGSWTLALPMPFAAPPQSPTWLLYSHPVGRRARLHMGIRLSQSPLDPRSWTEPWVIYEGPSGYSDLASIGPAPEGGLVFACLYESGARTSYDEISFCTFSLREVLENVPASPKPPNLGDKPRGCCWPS
The experiment in a line: IC50 inhibition assay using 4MU-NANA as the substrate, NEU4. Details: GST; made in house; host or cells: E. coli. The settings on record: 4MU-NANA as the substrate; read-out: IC50 NEU4.

The subject of the next test is NEU1, NEU2, NEU3, NEU4. The test is described as follows: Isoenzyme specificity/selectivity from 4MU-NANA IC50 across the four human neuraminidases.
Where [1] appears, read: 4MU-NANA as the substrate, read-out: IC50 NEU1.
Setting [2] is: isoenzyme(s) the compound is specific for, dual (bispecific) when ratio of IC50 is about 3 or less.

As to `CCCCC(C)C(=O)N[C@H]1[C@H]([C@H](O)[C@H](O)CO)OC(C(=O)O)=C[C@@H]1O` (mixture of isomers) [compound 72, 5-(2-Methyl)hexanamido(S/R)-2,6-anhydro-3,5-dideoxy-d-glycero-d-galacto-non-2-enonic acid], the values for the IC50 on NEU1 (setting [1]) and on NEU3 were 0.55 ± 0.07 µM and less than 1 µM, respectively.
On to `CCC(=O)N[C@H]1C=C(C(=O)O)O[C@@H]([C@H](O)[C@H](O)CO)[C@@H]1NC(C)=O` [25a, 5-Acetamido-2,6-anhydro-4-propionamido-3,4,5-trideoxy-D-glycero-D-galacto-non-2-enonic acid], for which the IC50 at NEU1 (setting [1]), on NEU4 and at NEU3 was more than 500 µM throughout.
As for `CCCCC(=O)N[C@H]1C=C(C(=O)O)O[C@@H]([C@H](O)[C@H](O)CO)[C@@H]1NC(C)=O` [25b, 5-Acetamido-2,6-anhydro-4-pentanamido-3,4,5-trideoxy-D-glycero-D-galacto-non-2-enonic acid], the IC50 on NEU1 (setting [1]), on NEU4 and at NEU3 was more than 500 µM each time.
As to `[N-]=[N+]=NCC(=O)N[C@@H]1C(O)C=C(C(=O)O)OC1C(O)C(O)CO` (stereo partly drawn) [compound 40, 5-(N-2-azidoacetyl)-2,3,5-trideoxy-D-glycero-D-galacto-2-nonulopyranosonic acid], the results for the IC50 at NEU1 (setting [1]), on NEU4 and on NEU3 were 24 ± 2 µM, 5.6 ± 0.8 µM and 4.4 ± 0.9 µM, respectively.
For `CCCCCc1cn(C[C@@H](O)[C@@H](O)[C@@H]2OC(C(=O)O)=C[C@H](O)[C@H]2NC(C)=O)nn1` [compound 63, 5-Acetamido-9-(4-pentyl)triazolyl-2,6-anhydro-3,5-dideoxy-d-glycero-d-galacto-non-2-enonic acid], in the test with NEU1, NEU2, NEU3, NEU4 (setting [2]), the Target result was “NEU3/ NEU4”. The IC50 on NEU4 was determined as 2.6 ± 0.6 µM; at NEU3, 6.7 ± 1.2 µM.
In the case of `CCCCCC(=O)N[C@H]1[C@H]([C@H](O)[C@H](O)CNC(=O)CC)OC(C(=O)O)=C[C@@H]1O` [compound 69, 5-Hexanamido-9-propionamido-2,6-anhydro-3,5-dideoxy-d-glycero-d-galacto-non-2-enonic acid], in the test with NEU1, NEU2, NEU3, NEU4 (setting [2]), the Target result was “NEU1”. Further, the IC50 at NEU1 (setting [1]) was 0.4 ± 0.1 µM; at NEU4 it was 270 ± 70 µM.
As to `CCCCC(=O)N[C@H]1[C@H]([C@H](O)[C@H](O)CNC(C)=O)OC(C(=O)O)=C[C@@H]1O` [compound 67, 5-Pentanamido-9-acetamido-2,6-anhydro-3,5-dideoxy-D-glycero-D-galacto-non-2-enonic acid], the Target result in the test with NEU1, NEU2, NEU3, NEU4 (setting [2]) is on record as “NEU1”. In addition, the IC50 at NEU1 (setting [1]) is 0.35 ± 0.03 µM; at NEU4, more than 500 µM.
Consider `CCCCC(C)C(=O)N[C@H]1[C@H]([C@H](O)[C@H](O)CNC(C)=O)OC(C(=O)O)=C[C@@H]1O` (mixture of isomers) [compound 74, 5-(2-Methyl)hexanamido(S/R)-9-acetanamido-2,6-anhydro-3,5-dideoxy-d-glycero-d-galacto-non-2-enonic acid], for which the IC50 at NEU1 (setting [1]) is 0.42 ± 0.07 µM; on NEU3, less than 1 µM.
Turning to `CC(=O)N[C@@H]1C(O)C=C(C(=O)O)OC1C(O)C(O)CNC(=O)CC(C)C` (stereo partly drawn) [compound 54, 5-Acetamido-9-(3-methylbutanamido)-2,6-anhydro-3,5-dideoxy-D-glycero-D-galacto-non-2-enonic acid], the IC50 is 2.5 ± 0.3 µM at NEU1 (setting [1]), 130 ± 40 µM at NEU4 and 72 ± 20 µM at NEU3.
Consider `Cc1ccc(-c2cn(CC(=O)N[C@@H]3C(O)C=C(C(=O)O)OC3C(O)C(O)CO)nn2)cc1` (stereo partly drawn) [compound 42], for which the IC50 is more than 500 µM on NEU1 (setting [1]), 110 ± 20 µM on NEU4 and more than 500 µM on NEU3.
Consider `CC(=O)N[C@H]1[C@H]([C@H](O)[C@H](O)CO)OC(C(=O)O)=C[C@@H]1NC(=O)C1CC1` [25c, 5-Acetamido-2,6-anhydro-4-cyclopropanecarboxamido-3,4,5-trideoxy-b-glycero-D-galacto-non-2-enonic acid], for which the IC50 on NEU1 (setting [1]), on NEU4 and on NEU3 was more than 500 µM each time.
For the compound `CCCCCC(=O)N[C@H]1[C@H]([C@H](O)[C@H](O)CNC(C)=O)OC(C(=O)O)=C[C@@H]1O` [compound 68, 5-Hexanamido-9-acetamido-2,6-anhydro-3,5-dideoxy-D-glycero-D-galacto-non-2-enonic acid], the Target entry in the test with NEU1, NEU2, NEU3, NEU4 (setting [2]) is recorded as “NEU1”. Also, the results for the IC50 on NEU1 (setting [1]) and at NEU4 were 0.14 ± 0.01 µM and 170 ± 100 µM, respectively.
Regarding `CCCCC(CC)C(=O)N[C@H]1[C@H]([C@H](O)[C@H](O)CO)OC(C(=O)O)=C[C@@H]1O` (mixture of isomers) [compound 75, 5-(2-Ethyl)hexanamido(SIR)-2,6-anhydro-3,5-dideoxy-d-glycero-d-galacto-non-2-enonic acid], the IC50 on NEU1 (setting [1]) is 0.58 ± 0.03 µM; on NEU3, less than 1 µM.
As to `CC(C)CCC(=O)N[C@H]1[C@H]([C@H](O)[C@H](O)CO)OC(C(=O)O)=C[C@@H]1NC(=N)N` [compound 71, 5-(4-methylpentanamido)-2,6-anhydro-4-guanidino-3,4,5-trideoxy-D-glycero-D-galacto-non-2-enonic acid], the half-maximal inhibitory concentration (IC50) at NEU1 (setting [1]) worked out at 14 ± 2 µM; at NEU4 it was 47 ± 7 µM; on NEU3, 150 ± 20 µM.
For the compound `CC(=O)N[C@H]1[C@H]([C@H](O)[C@H](O)CO)OC(C(=O)O)=C[C@@H]1NC(=O)C1CCC1` [25d, 5-Acetamido-2,6-anhydro-4-cyclobutanecarboxamido-3,4,5-trideoxy-D-glycero-D-galacto-non-2-enonic acid], the IC50 at NEU1 (setting [1]), at NEU4 and at NEU3 was more than 500 µM each time.
For `CCCCCC(=O)NCC(O)C(O)C1OC(C(=O)O)=CC(O)[C@H]1NC(C)=O` (stereo partly drawn) [compound 51, 5-Acetamido-9-hexanamido-2,6-anhydro-3,5-dideoxy-D-glycero-D-galacto-non-2-enonic acid], the Target result with NEU1, NEU2, NEU3, NEU4 is recorded as “NEU1”. Moreover, the IC50 on NEU4 was 290 ± 30 µM; at NEU3, 83 ± 9 µM.
For `CC(=O)N[C@@H]1C(O)C=C(C(=O)O)OC1C(O)C(O)CNC(=O)C(C)C` (stereo partly drawn) [compound 53, 5-Acetamido-9-isobutyramido-2,6-anhydro-3,5-dideoxy-D-glycero-D-galacto-non-2-enonic acid], the IC50 on NEU4 was determined as 230 ± 60 µM; on NEU3, 96 ± 28 µM.
In the case of `CCCC(=O)NCC(O)C(O)C1OC(C(=O)O)=CC(O)[C@H]1NC(C)=O` (stereo partly drawn) [compound 49, 5-Acetamido-9-butyramido-2,6-anhydro-3,5-dideoxy-D-glycero-D-galacto-non-2-enonic acid], the values for the IC50 on NEU1 (setting [1]) and on NEU3 were 4 ± 0.5 µM and 250 ± 90 µM, respectively.
In the case of `Nc1ccc(-c2cn(CC(=O)N[C@@H]3C(O)C=C(C(=O)O)OC3C(O)C(O)CO)nn2)cc1` (stereo partly drawn) [compound 46], the figures for the IC50 on NEU1 (setting [1]), at NEU4 and on NEU3 were more than 500 µM, 130 ± 20 µM and 430 ± 100 µM, respectively.
Turning to `CCCCC(CC)C(=O)N[C@H]1[C@H]([C@H](O)[C@H](O)CNC(C)=O)OC(C(=O)O)=C[C@@H]1O` (mixture of isomers) [compound 73, 5-(2-Ethyl)hexanamido(S/R)-9-acetanamido-2,6-anhydro-3,5-dideoxy-d-glycero-d-galacto-non-2-enonic acid], the IC50 on NEU1 (setting [1]) turned out to be 1.8 ± 0.2 µM.
As for `CCCCCC(=O)N[C@H]1[C@H]([C@H](O)[C@H](O)CO)OC(C(=O)O)=C[C@@H]1O` [compound 32, 5-Hexanamido-2,6-anhydro-3,5-dideoxy-D-glycero-D-galacto-non-2-enonic acid], the Target result with NEU1, NEU2, NEU3, NEU4 (setting [2]) is reported as “NEU1”. Further, the IC50 on NEU1 (setting [1]) worked out at 0.42 ± 0.06 µM; on NEU1 (target isoenzyme NEU1, 4MU-NANA substrate, read-out: IC50 [μM] NEU1), 0.4 µM; on NEU4, 440 ± 150 µM.
